Where two headings read alike, the source gives them in different places.

The source of these data is PMC6556873, “Rapid Covalent-Probe Discovery by Electrophile-Fragment Screening” (Journal of the American Chemical Society, 2019).

Series [1] can be described thus: in vitro. Also on record: species or system HB2, HEK293. The conditions noted are these: human, ccd841 cells.
Series [2] is described as follows: in vitro. The arrangement: species or system CCD841, HEK293. The settings on record: human, hb2 cells, read-out: HB-2 Cells Viability (%).
A short description of series [3]: in vitro. Also on record: species or system HB2, CCD841. The settings on record: human, hek293 cells.
Another series deals with T1, PCAF (Homo sapiens, UniProt Q92831).
T1 construct: gene KAT2B
The arrangement: Intact protein LC/MS covalent labelling, fragments in pools of five, 200 uM each, 4 °C. The conditions noted are these: 24 h, 4 °C, pool of five; 200 µM; covalent.

In the next series the target is T2, BSA (Bos taurus, UniProt P02769).
T2 construct: gene ALB
The arrangement: Intact protein LC/MS covalent labelling, fragments in pools of five, 200 uM each, 4 °C. The conditions noted are these: 24 h, 4 °C, pool of five; 200 µM; covalent.

In the next series the target is T3, NUDT7 (Homo sapiens, UniProt P0C024).
T3 construct: residues 14-235, E. coli, pNIC28-Bsa4, N-terminal His6 tag removed by TEV, construct 26672 Da
Also on record: Intact protein LC/MS covalent labelling, fragments in pools of five, 200 uM each, 4 °C. The conditions noted are these: 24 h, 4 °C, pool of five; 200 µM; covalent.

Another series concerns the target T4, NNMT (hNNMT) (Homo sapiens, UniProt P40261).
T4 construct: wild type, N-terminal His6 tag kept (no cleavage described), E. coli, construct 31248 Da
T4 sequence (P40261 1-264): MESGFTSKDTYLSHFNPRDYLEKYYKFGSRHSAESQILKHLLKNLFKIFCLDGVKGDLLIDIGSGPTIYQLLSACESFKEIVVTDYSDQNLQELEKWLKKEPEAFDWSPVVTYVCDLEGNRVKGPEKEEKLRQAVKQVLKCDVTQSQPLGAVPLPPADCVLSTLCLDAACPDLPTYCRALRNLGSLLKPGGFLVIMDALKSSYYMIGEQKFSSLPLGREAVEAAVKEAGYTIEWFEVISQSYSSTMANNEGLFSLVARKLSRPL
Also on record: Intact protein LC/MS covalent labelling, fragments in pools of five, 200 uM each, 4 °C. The conditions noted are these: 24 h, 4 °C, pool of five; 200 µM; covalent.

Another series has as its target T5, OTUB2 (OTUB2A) (Homo sapiens, UniProt Q96DC9).
T5 construct: full length residues 1-234, E. coli BL21(DE3)-R3, His tag removed by TEV, construct 27312 Da
T5 sequence (Q96DC9 1-234): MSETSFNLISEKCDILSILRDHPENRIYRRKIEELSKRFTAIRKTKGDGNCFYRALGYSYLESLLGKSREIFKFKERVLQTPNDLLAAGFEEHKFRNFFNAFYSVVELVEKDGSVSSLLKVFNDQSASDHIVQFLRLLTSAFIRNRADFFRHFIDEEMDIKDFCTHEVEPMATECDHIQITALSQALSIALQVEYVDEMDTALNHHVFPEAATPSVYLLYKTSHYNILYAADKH
The arrangement: Intact protein LC/MS covalent labelling, fragments in pools of five, 200 uM each, 4 °C. The conditions noted are these: 24 h, 4 °C, pool of five; 200 µM; covalent.

T2 sequence (P02769 whole entry): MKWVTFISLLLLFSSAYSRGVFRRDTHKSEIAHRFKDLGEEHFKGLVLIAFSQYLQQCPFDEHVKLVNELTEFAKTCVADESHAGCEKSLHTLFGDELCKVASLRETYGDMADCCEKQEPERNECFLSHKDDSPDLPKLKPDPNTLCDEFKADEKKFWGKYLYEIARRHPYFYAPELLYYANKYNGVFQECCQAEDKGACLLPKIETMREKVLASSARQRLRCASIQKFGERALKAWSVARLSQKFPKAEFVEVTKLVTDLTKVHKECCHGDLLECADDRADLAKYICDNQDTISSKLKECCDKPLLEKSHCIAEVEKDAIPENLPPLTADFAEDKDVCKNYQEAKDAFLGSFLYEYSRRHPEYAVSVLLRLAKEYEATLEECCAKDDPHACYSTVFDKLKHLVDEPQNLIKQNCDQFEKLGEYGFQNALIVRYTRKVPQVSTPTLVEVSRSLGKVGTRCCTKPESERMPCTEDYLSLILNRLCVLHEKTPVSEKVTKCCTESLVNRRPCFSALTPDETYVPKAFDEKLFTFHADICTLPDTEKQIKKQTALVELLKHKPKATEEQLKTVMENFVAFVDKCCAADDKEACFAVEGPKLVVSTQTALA
T3 sequence (P0C024 14-235): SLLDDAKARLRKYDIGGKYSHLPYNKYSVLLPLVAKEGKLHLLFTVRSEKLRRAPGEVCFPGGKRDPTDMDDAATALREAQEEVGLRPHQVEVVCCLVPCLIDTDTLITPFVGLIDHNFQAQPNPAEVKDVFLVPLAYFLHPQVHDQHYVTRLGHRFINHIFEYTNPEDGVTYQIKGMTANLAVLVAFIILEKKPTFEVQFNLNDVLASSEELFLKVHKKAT
T1 sequence (Q92831 whole entry): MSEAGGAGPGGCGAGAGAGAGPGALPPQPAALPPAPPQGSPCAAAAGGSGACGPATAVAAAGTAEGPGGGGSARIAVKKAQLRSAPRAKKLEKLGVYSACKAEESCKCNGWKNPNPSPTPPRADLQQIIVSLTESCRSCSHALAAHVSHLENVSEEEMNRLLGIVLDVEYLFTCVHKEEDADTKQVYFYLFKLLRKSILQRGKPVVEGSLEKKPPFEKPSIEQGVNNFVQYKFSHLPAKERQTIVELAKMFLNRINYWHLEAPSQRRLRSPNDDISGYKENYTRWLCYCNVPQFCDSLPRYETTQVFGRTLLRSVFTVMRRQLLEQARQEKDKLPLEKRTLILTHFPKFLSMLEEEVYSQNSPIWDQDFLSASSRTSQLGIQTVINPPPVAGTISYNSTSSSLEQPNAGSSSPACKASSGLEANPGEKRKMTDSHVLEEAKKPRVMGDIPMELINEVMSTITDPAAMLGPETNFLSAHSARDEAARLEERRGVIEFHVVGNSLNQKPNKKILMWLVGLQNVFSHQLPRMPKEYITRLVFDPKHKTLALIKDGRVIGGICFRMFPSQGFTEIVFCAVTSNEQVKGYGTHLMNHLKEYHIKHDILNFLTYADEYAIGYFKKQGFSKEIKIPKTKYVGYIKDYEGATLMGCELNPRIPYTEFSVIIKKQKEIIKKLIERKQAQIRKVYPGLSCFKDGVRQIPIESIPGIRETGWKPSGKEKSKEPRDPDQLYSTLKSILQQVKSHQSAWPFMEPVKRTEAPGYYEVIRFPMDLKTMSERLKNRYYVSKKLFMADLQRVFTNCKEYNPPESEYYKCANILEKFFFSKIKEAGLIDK

In the case of `C=CC(=O)Nc1ccc(N2CCCC2=O)cc1` [PCM-0102145], the viability at 48 h, 10 µM in the series “in vitro [1]” is 125%; in the series “in vitro [2]” it was 101%; in the series “in vitro [3]” it was 91.4%. Besides, the PCAF at PCAF came to 0. The molecule also had a BSA on BSA of 0. For the same molecule, the NUDT7 on NUDT7 was 0. On NNMT (hNNMT), this molecule registered an NNMT of 0.14. Moreover, the OTUB2 on OTUB2 (OTUB2A) is 0.
In the case of `N#CCc1ccc(NC(=O)CCl)cc1` [PCM-0102148], the viability at 48 h, 10 µM is 32.2% in the series “in vitro [1]”, 11.8% in the series “in vitro [2]” and 2.1% in “in vitro [3]”. The PCAF on PCAF stood at 0. This molecule came in with a BSA on BSA of 0. For the same molecule, on NUDT7, the NUDT7 amounted to 0.1. Also, the NNMT on NNMT (hNNMT) amounted to 0.27. At OTUB2 (OTUB2A), this molecule returned an OTUB2 of 0.43.
Take `O=C(CCl)NCc1ccccc1F` [PCM-0102149]: the viability at 48 h, 10 µM is 63.7% in the series “in vitro [1]”, 86.4% in the series “in vitro [2]” and 71.3% in “in vitro [3]”. For the same molecule, the PCAF on PCAF stood at 0. This molecule registered a BSA on BSA of 0. Besides, on NUDT7, the NUDT7 came to 0. This molecule also yielded an NNMT at NNMT (hNNMT) of 0. The OTUB2 at OTUB2 (OTUB2A) worked out at 0.62.
`O=C(CCl)Nc1ccccc1Cl` [PCM-0102152]: the viability at 48 h, 10 µM amounted to 78.5% in the series “in vitro [1]”, 75.4% in the series “in vitro [2]” and 76.1% in “in vitro [3]”. The PCAF on PCAF came out at 0. In addition, at BSA, the BSA came out at 0. The NUDT7 at NUDT7 was determined as 0. This molecule had an NNMT at NNMT (hNNMT) of 0. Also, on OTUB2 (OTUB2A), the OTUB2 is recorded as 0.2.
As to `COc1ccc(NC(=O)CCl)cc1` [PCM-0102156], the results for the viability at 48 h, 10 µM in “in vitro [1]”, in the series “in vitro [2]” and in “in vitro [3]” were 42.7%, 24.7% and 2.4%, respectively. The molecule also yielded a PCAF on PCAF of 0. The molecule further returned a BSA on BSA of 0. For the same molecule, the NUDT7 at NUDT7 was found to be 0. Also, the NNMT on NNMT (hNNMT) was found to be 0.25. At OTUB2 (OTUB2A), the OTUB2 is 0.52.
`O=C(CCl)Nc1ccccc1F` [PCM-0102158]: the results for the viability at 48 h, 10 µM in “in vitro [1]”, in “in vitro [2]” and in the series “in vitro [3]” were 59%, 50% and 34.2%, respectively. The PCAF at PCAF worked out at 0. The molecule further displayed a BSA at BSA of 0. Besides, the NUDT7 on NUDT7 is given as 0. Moreover, the NNMT on NNMT (hNNMT) worked out at 0. This molecule had an OTUB2 on OTUB2 (OTUB2A) of 0.51.
As for `CCc1nnc(NC(=O)CCl)s1` [PCM-0102166], the values for the viability at 48 h, 10 µM in the series “in vitro [1]”, in the series “in vitro [2]” and in the series “in vitro [3]” were 92.5%, 94.5% and 95.8%, respectively. In addition, at PCAF, the PCAF was 0. Besides, the BSA on BSA was 0. Moreover, on NUDT7, the NUDT7 was found to be 0.21. The NNMT at NNMT (hNNMT) is on record as 0.42. This molecule showed an OTUB2 at OTUB2 (OTUB2A) of 0.
On to `Cl.O=C(CCl)N1CCN(Cc2ccc(Br)s2)CC1` [PCM-0102169], for which the viability at 48 h, 10 µM in the series “in vitro [1]” is 33%; in “in vitro [2]”, 8.8%; in the series “in vitro [3]” it was 8.6%. This molecule also had a PCAF on PCAF of 0. Moreover, on BSA, the BSA is on record as 0. Further, on NUDT7, the NUDT7 was determined as 0. In addition, the NNMT on NNMT (hNNMT) was determined as 0. At OTUB2 (OTUB2A), this molecule showed an OTUB2 of 0.
For `O=C(CCl)Nc1ccccc1C(F)(F)F` [PCM-0102170], the viability at 48 h, 10 µM in “in vitro [1]” was 99.1%; in the series “in vitro [2]”, 96.7%; in “in vitro [3]”, 72.6%. The PCAF on PCAF is reported as 0. Further, the BSA at BSA is 0. Further, on NUDT7, the NUDT7 is 0. The NNMT at NNMT (hNNMT) was 0.12. The OTUB2 on OTUB2 (OTUB2A) came to 0.
For the molecule `O=C(CCl)Nc1cccc(N2CCCC2=O)c1` [PCM-0102179], the viability at 48 h, 10 µM in the series “in vitro [1]” worked out at 52.4%; in the series “in vitro [2]”, 20.8%; in “in vitro [3]”, 1.8%. The PCAF on PCAF is 0. On BSA, this molecule gave a BSA of 0. The molecule further returned an NUDT7 at NUDT7 of 0.12. At NNMT (hNNMT), this molecule came in with an NNMT of 0.23. Further, the OTUB2 on OTUB2 (OTUB2A) was 0.47.
